# Read-outs that look alike come from different tables or passages of the source.
# Key:
# Type in all cases: cell-based
# P3HR1 = test: Cytotoxicity MTS, leukemias/lymphomas, P3HR1; details: 4-Parameter Curve Fit, NA = not active, read-out: Cytotoxicity IC50 Lymphoma (Burkitts ascites) P3HR1
# RAMOS = test: Cytotoxicity MTS, leukemias/lymphomas, RAMOS; details: 4-Parameter Curve Fit, NA = not active, read-out: Cytotoxicity IC50 Lymphoma (Burkitts B cell) RAMOS
# Hut 78 = test: Cytotoxicity MTS, leukemias/lymphomas, Hut 78; details: 4-Parameter Curve Fit, NA = not active, read-out: Cytotoxicity IC50 Lymphoma (Cutaneous T cell) Hut 78
# ARH-77 = test: Cytotoxicity MTS, leukemias/lymphomas, ARH-77; details: 4-Parameter Curve Fit, NA = not active, read-out: Cytotoxicity IC50 Leukemia (Plasma cell) ARH-77
# U-937 = test: Cytotoxicity MTS, leukemias/lymphomas, U-937; details: 4-Parameter Curve Fit, NA = not active, read-out: Cytotoxicity IC50 Lymphoma (Histiocytic) U-937
# K562 = test: Cytotoxicity MTS, leukemias/lymphomas, K562; details: 4-Parameter Curve Fit, NA = not active, read-out: Cytotoxicity IC50 CML (Chronic myelogenous) K562
# HL-60 = test: Cytotoxicity MTS, leukemias/lymphomas, HL-60; details: read-out: Cytotoxicity IC50 AML (acute promyelocytic leukemia) HL-60, 4-Parameter Curve Fit, NA = not active, read-out: Cytotoxicity IC50 ALL (Promyelocytic leukemia) HL-60
# H9 = test: Cytotoxicity MTS, leukemias/lymphomas, H9; details: 4-Parameter Curve Fit, NA = not active, read-out: Cytotoxicity IC50 Lymphoma (T cell) H9
# Molt 3 = test: Cytotoxicity MTS, leukemias/lymphomas, Molt 3; details: 4-Parameter Curve Fit, NA = not active, read-out: Cytotoxicity IC50 ALL (Acute lymphobalstic) Molt 3
# MC116 = test: Cytotoxicity MTS, leukemias/lymphomas, MC116; details: 4-Parameter Curve Fit, NA = not active, read-out: Cytotoxicity IC50 Lymphoma (undifferentiated) MC116
# P388 = test: Cytotoxicity of spisulosine analogs, P388 (after Berjeron et al); details: methodology after Berjeron et al, NA=not active, read-out: Cytotoxicity IC50 P388
# A549 [1] = test: Cytotoxicity of spisulosine analogs, A549 (after Berjeron et al); details: A549; methodology after Berjeron et al; NA=not active; read-out: Cytotoxicity IC50 A549
# MEL28 = test: Cytotoxicity of spisulosine analogs, MEL28 (after Berjeron et al); details: methodology after Berjeron et al, NA=not active, read-out: Cytotoxicity IC50 MEL28
# DU145 = test: Cytotoxicity of spisulosine analogs, DU145 (after Berjeron et al); details: methodology after Berjeron et al, NA=not active, read-out: Cytotoxicity IC50 DU145
# HT29 = test: Cytotoxicity of spisulosine analogs, HT29 (after Berjeron et al); details: HT29; methodology after Berjeron et al; NA=not active; read-out: Cytotoxicity IC50 HT29
# FADU = test: Cytotoxicity MTS, solid tumors, Pharynx FADU; details: 4-Parameter Curve Fit, NA = not active
# SK-HEP-1 = test: Cytotoxicity MTS, solid tumors, Liver SK-HEP-1; details: 4-Parameter Curve Fit, NA = not active
# Hs746t = test: Cytotoxicity MTS, solid tumors, Gastric Hs746t; details: 4-Parameter Curve Fit, NA = not active
# MX-1 = test: Cytotoxicity MTS, solid tumors, Breast MX-1; details: 4-Parameter Curve Fit, NA = not active
# A549 [2] = test: Cytotoxicity MTS, solid tumors, NSCL A549; details: 4-Parameter Curve Fit, NA = not active
# 786-O = test: Cytotoxicity MTS, solid tumors, Renal 786-O; details: 4-Parameter Curve Fit, NA = not active
# SK-OV-3 = test: Cytotoxicity MTS, solid tumors, Ovary SK-OV-3; details: 4-Parameter Curve Fit, NA = not active
# HT-29 = test: Cytotoxicity MTS, solid tumors, Colon HT-29; details: 4-Parameter Curve Fit, NA = not active
Compound,IC50 (A549 [1]) [nM],IC50 (HT29) [nM],IC50 (P388; P388) [nM],IC50 (MEL28; MEL28) [nM],IC50 (DU145; DU145) [nM],other results
CCCCCCCCCCCCCCCC(O)C(C)N (stereo not shown),,,,,,IC50 (P3HR1): 3370 nM; IC50 (RAMOS): 2140 nM; IC50 (Hut 78): 2160 nM; IC50 (ARH-77): 682 nM; IC50 (U-937): 981 nM; IC50 (K562): 784 nM; IC50 (HL-60): 425 nM; IC50 (H9): 1550 nM
CCCCCCCCCCCCCCCCC(O)C(C)N (stereo not shown),,,,,,IC50 (Molt 3): 1120 nM; IC50 (Hut 78): 10600 nM; IC50 (U-937): 29.8 nM; IC50 (MC116): 8820 nM
CCCCCCCCCCCCCCCCCC(O)C(C)N (stereo not shown),,,,,,IC50 (Molt 3): 7610 nM; IC50 (MC116): 10900 nM
CCCCCCCCCCCCCCCC(=O)C(N)CC (stereo not shown),,,,,,IC50 (Molt 3): 581 nM; IC50 (RAMOS): 1210 nM; IC50 (H9): 5980 nM
"CCCCCCCCCCCCCCCCCC[C@@H](O)[C@H](C)N [drawing 52, (2S,3R)-2-Amino-3-heneicosanol]",305,305,,,,"IC50 (P388; Mus musculus, P388, P388): 153 nM; IC50 (MEL28; Homo sapiens, SK-MEL-28, MEL28): 305 nM; IC50 (DU145; Homo sapiens, DU-145, DU145): 305 nM"
"CCCCCCCCCCCCCCC[C@@H](O)[C@@H](N)CC [drawing 58, (3S,4R)-3-Amino-4-nonadecanol]",33.4,33.4,,,,"IC50 (P388; Mus musculus, P388, P388): 33.4 nM; IC50 (MEL28; Homo sapiens, SK-MEL-28, MEL28): 334 nM; IC50 (DU145; Homo sapiens, DU-145, DU145): 33.4 nM"
CCCCCCCCCCCCCCCC(O)C(N)CC (stereo not shown) [drawing 79],334,334,334,334,334,
CCCCCCCCCCCCCC[C@@H](O)[C@H](C)N [drawing 101],163,163,163,327,163,
CCCCCCCCCCCCCCCC(=O)[C@H](C)N [drawing 102],156,31.3,31.3,156,31.3,
CCCCCCCCCCCCCCCCC(=O)[C@H](C)N [drawing 104],150,150,150,299,150,
CCCCCCCCCCCCCCCCCC(=O)[C@H](C)N [drawing 105],144,144,144,287,144,
CCCCCCCCCCCCCCCC(=O)[C@@H](N)CC [drawing 106],29.9,29.9,29.9,299,29.9,
CCCCCCCCCCCCCCC[C@@H](O)[C@@H](N)CF [drawing 111],32.9,32.9,32.9,329,329,
CCCCCCCCCCCCCCC[C@@H](O)[C@H](C)N [drawing 112],,,,,,IC50 (FADU): 249 nM; IC50 (SK-HEP-1): 297 nM; IC50 (Hs746t): 395 nM; IC50 (MX-1): 1950 nM; IC50 (A549 [2]): 85.7 nM; IC50 (786-O): 138 nM; IC50 (SK-OV-3): 702 nM; IC50 (HT-29): 128 nM

# — US20040048834A1, “Antitumoral compounds” (priority 2000, published 2004)
